# PubChem BioAssay AID248 (DTP/NCI, 2004)
# Values joined by “and” are separate entries in the source; they are usually repeats but may differ in a detail not shown here. Equal values may be shown once. Inconclusive results and toxic doses are left out.
# Test system: L1210 leukemia ip in BDF1 mice, survival T/C
# Assay: NCI In Vivo Anticancer Drug Screen. Data for tumor model L1210 Leukemia (intraperitoneal) in B6D2F1 (BDF1) mice
# Conditions: higher = longer survival
# In short: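 Ratio derived from survival: compound-dosed mice over vehicle-dosed mice, all bearing a transplantable tumor.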
# [1] = endpoint: mean survival time, dose: 100.0 mg/kg/injection, schedule: Q04DX003 (ip), vehicle: saline
# [2] = endpoint: mean survival time, dose: 200.0 mg/kg/injection, schedule: Q04DX003 (ip), vehicle: saline
# [3] = endpoint: mean survival time, dose: 400.0 mg/kg/injection, schedule: Q04DX003 (ip), vehicle: saline
structure (smiles),measurement,setting,value
CO[C@H]1/C=C/O[C@@]2(C)Oc3c(C)c(O)c4c(O)c(c(/C=N/N5C(C)CN(Cc6ccccc6)CC5C)c(O)c4c3C2=O)NC(=O)/C(C)=C\C=C\[C@H](C)[C@H](O)[C@@H](C)[C@@H](O)[C@@H](C)[C@H](OC(C)=O)[C@@H]1C (stereo not given in full),T/C,"endpoint: mean survival time, dose: 12.5 mg/kg/injection, schedule: Q02DX Z (oral), vehicle: Klucel (hydroxypropylcellulose) (HPC)",100 % of control
same,T/C,"endpoint: mean survival time, dose: 25.0 mg/kg/injection, schedule: Q02DX Z (oral), vehicle: Klucel (hydroxypropylcellulose) (HPC)",95 % of control and 98 % of control
same,T/C,"endpoint: mean survival time, dose: 50.0 mg/kg/injection, schedule: Q01DX009 (ip), vehicle: Klucel (hydroxypropylcellulose) (HPC)",97 % of control
same,T/C,"endpoint: mean survival time, dose: 50.0 mg/kg/injection, schedule: Q02DX Z (oral), vehicle: Klucel (hydroxypropylcellulose) (HPC)",93 % of control and 96 % of control
same,T/C,"endpoint: mean survival time, dose: 100.0 mg/kg/injection, schedule: Q01DX009 (ip), vehicle: Klucel (hydroxypropylcellulose) (HPC)",101 % of control
same,T/C,"endpoint: mean survival time, dose: 100.0 mg/kg/injection, schedule: Q02DX Z (oral), vehicle: Klucel (hydroxypropylcellulose) (HPC)",100 % of control and 106 % of control
same,T/C,"endpoint: mean survival time, dose: 100.0 mg/kg/injection, schedule: Q04DX003 (ip), vehicle: Klucel (hydroxypropylcellulose) (HPC)",97 % of control
same,T/C,"endpoint: mean survival time, dose: 200.0 mg/kg/injection, schedule: Q01DX009 (ip), vehicle: Klucel (hydroxypropylcellulose) (HPC)",100 % of control
same,T/C,"endpoint: mean survival time, dose: 200.0 mg/kg/injection, schedule: Q02DX Z (oral), vehicle: Klucel (hydroxypropylcellulose) (HPC)",96 % of control and 98 % of control
same,T/C,"endpoint: mean survival time, dose: 200.0 mg/kg/injection, schedule: Q04DX003 (ip), vehicle: Klucel (hydroxypropylcellulose) (HPC)",95 % of control
same,T/C,"endpoint: mean survival time, dose: 400.0 mg/kg/injection, schedule: Q02DX Z (oral), vehicle: Klucel (hydroxypropylcellulose) (HPC)",107 % of control and 91 % of control
same,T/C,"endpoint: mean survival time, dose: 400.0 mg/kg/injection, schedule: Q04DX003 (ip), vehicle: Klucel (hydroxypropylcellulose) (HPC)",103 % of control
same,T/C,"endpoint: mean survival time, dose: 800.0 mg/kg/injection, schedule: Q02DX Z (oral), vehicle: Klucel (hydroxypropylcellulose) (HPC)",101 % of control and 104 % of control
same,T/C,"endpoint: mean survival time, dose: 1600.0 mg/kg/injection, schedule: Q02DX Z (oral), vehicle: Klucel (hydroxypropylcellulose) (HPC)",95 % of control and 89 % of control
same,T/C,"endpoint: median survival time, dose: 6.25 mg/kg/injection, schedule: Q01DX005 (ip), vehicle: other",106 % of control
same,T/C,"endpoint: median survival time, dose: 12.5 mg/kg/injection, schedule: Q01DX005 (ip), vehicle: Klucel (hydroxypropylcellulose) (HPC)",110 % of control
same,T/C,"endpoint: median survival time, dose: 12.5 mg/kg/injection, schedule: Q01DX005 (ip), vehicle: other",107 % of control
same,T/C,"endpoint: median survival time, dose: 12.5 mg/kg/injection, schedule: Q01DX005 (oral), vehicle: other",117 % of control
same,T/C,"endpoint: median survival time, dose: 25.0 mg/kg/injection, schedule: Q01DX005 (ip), vehicle: Klucel (hydroxypropylcellulose) (HPC)",101 % of control
same,T/C,"endpoint: median survival time, dose: 25.0 mg/kg/injection, schedule: Q01DX005 (ip), vehicle: other",111 % of control
same,T/C,"endpoint: median survival time, dose: 25.0 mg/kg/injection, schedule: Q01DX005 (oral), vehicle: Klucel (hydroxypropylcellulose) (HPC)",117 % of control
same,T/C,"endpoint: median survival time, dose: 25.0 mg/kg/injection, schedule: Q01DX005 (oral), vehicle: other",114 % of control and 119 % of control
same,T/C,"endpoint: median survival time, dose: 25.0 mg/kg/injection, schedule: Q02DX005 (oral), vehicle: other",104 % of control
same,T/C,"endpoint: median survival time, dose: 50.0 mg/kg/injection, schedule: Q01DX005 (ip), vehicle: Klucel (hydroxypropylcellulose) (HPC)",97 % of control
same,T/C,"endpoint: median survival time, dose: 50.0 mg/kg/injection, schedule: Q01DX005 (ip), vehicle: other",117 % of control
same,T/C,"endpoint: median survival time, dose: 50.0 mg/kg/injection, schedule: Q01DX005 (oral), vehicle: Klucel (hydroxypropylcellulose) (HPC)",114 % of control
same,T/C,"endpoint: median survival time, dose: 50.0 mg/kg/injection, schedule: Q01DX005 (oral), vehicle: other",93 % of control and 111 % of control
same,T/C,"endpoint: median survival time, dose: 50.0 mg/kg/injection, schedule: Q02DX005 (oral), vehicle: other",104 % of control
same,T/C,"endpoint: median survival time, dose: 100.0 mg/kg/injection, schedule: Q01DX005 (ip), vehicle: Klucel (hydroxypropylcellulose) (HPC)",106 % of control
same,T/C,"endpoint: median survival time, dose: 100.0 mg/kg/injection, schedule: Q01DX005 (ip), vehicle: other",103 % of control
same,T/C,"endpoint: median survival time, dose: 100.0 mg/kg/injection, schedule: Q01DX005 (oral), vehicle: Klucel (hydroxypropylcellulose) (HPC)",114 % of control
same,T/C,"endpoint: median survival time, dose: 100.0 mg/kg/injection, schedule: Q01DX005 (oral), vehicle: other",93 % of control and 107 % of control
same,T/C,"endpoint: median survival time, dose: 100.0 mg/kg/injection, schedule: Q02DX005 (oral), vehicle: other",104 % of control
same,T/C,"endpoint: median survival time, dose: 200.0 mg/kg/injection, schedule: Q01DX005 (ip), vehicle: Klucel (hydroxypropylcellulose) (HPC)",92 % of control
same,T/C,"endpoint: median survival time, dose: 200.0 mg/kg/injection, schedule: Q01DX005 (oral), vehicle: Klucel (hydroxypropylcellulose) (HPC)",94 % of control and 117 % of control
same,T/C,"endpoint: median survival time, dose: 200.0 mg/kg/injection, schedule: Q01DX005 (oral), vehicle: other",98 % of control and 111 % of control
same,T/C,"endpoint: median survival time, dose: 200.0 mg/kg/injection, schedule: Q02DX005 (oral), vehicle: Klucel (hydroxypropylcellulose) (HPC)",100 % of control
same,T/C,"endpoint: median survival time, dose: 200.0 mg/kg/injection, schedule: Q02DX005 (oral), vehicle: other",119 % of control
same,T/C,"endpoint: median survival time, dose: 400.0 mg/kg/injection, schedule: Q01DX005 (ip), vehicle: Klucel (hydroxypropylcellulose) (HPC)",102 % of control
same,T/C,"endpoint: median survival time, dose: 400.0 mg/kg/injection, schedule: Q01DX005 (oral), vehicle: Klucel (hydroxypropylcellulose) (HPC)",104 % of control and 114 % of control
same,T/C,"endpoint: median survival time, dose: 400.0 mg/kg/injection, schedule: Q02DX005 (oral), vehicle: Klucel (hydroxypropylcellulose) (HPC)",101 % of control
same,T/C,"endpoint: median survival time, dose: 800.0 mg/kg/injection, schedule: Q01DX005 (ip), vehicle: Klucel (hydroxypropylcellulose) (HPC)",104 % of control
same,T/C,"endpoint: median survival time, dose: 800.0 mg/kg/injection, schedule: Q01DX005 (oral), vehicle: Klucel (hydroxypropylcellulose) (HPC)",101 % of control
same,T/C,"endpoint: median survival time, dose: 800.0 mg/kg/injection, schedule: Q02DX005 (oral), vehicle: Klucel (hydroxypropylcellulose) (HPC)",104 % of control
same,T/C,"endpoint: median survival time, dose: 1600.0 mg/kg/injection, schedule: Q01DX005 (oral), vehicle: Klucel (hydroxypropylcellulose) (HPC)",104 % of control and 114 % of control
same,T/C,"endpoint: median survival time, dose: 1600.0 mg/kg/injection, schedule: Q02DX005 (oral), vehicle: Klucel (hydroxypropylcellulose) (HPC)",119 % of control
CC(=O)/C=C(\C)NCC(C)N/C(C)=C/C(C)=O (stereo not given),T/C,"endpoint: mean survival time, dose: 100.0 mg/kg/injection, schedule: Q01DX001 (ip), vehicle: saline",105 % of control
same,T/C,"endpoint: mean survival time, dose: 200.0 mg/kg/injection, schedule: Q01DX001 (ip), vehicle: saline",96 % of control
same,T/C,"endpoint: mean survival time, dose: 400.0 mg/kg/injection, schedule: Q01DX001 (ip), vehicle: saline",99 % of control
O=C(COc1cc(Cl)c(Cl)cc1Cl)Nc1ccc(-c2ccccc2)cc1,T/C,"endpoint: mean survival time, dose: 75.0 mg/kg/injection, schedule: Q04DX002 (ip), vehicle: Klucel (hydroxypropylcellulose) (HPC)",95 % of control
same,T/C,"endpoint: mean survival time, dose: 150.0 mg/kg/injection, schedule: Q04DX002 (ip), vehicle: Klucel (hydroxypropylcellulose) (HPC)",103 % of control
same,T/C,"endpoint: mean survival time, dose: 300.0 mg/kg/injection, schedule: Q04DX002 (ip), vehicle: Klucel (hydroxypropylcellulose) (HPC)",98 % of control
O=C(NCCCCN1CC1)C(=O)NCCCCN1CC1,T/C,"endpoint: mean survival time, dose: 1.5 mg/kg/injection, schedule: Q04DX003 (ip), vehicle: Klucel (hydroxypropylcellulose) (HPC)",108 % of control
same,T/C,"endpoint: mean survival time, dose: 3.0 mg/kg/injection, schedule: Q04DX003 (ip), vehicle: Klucel (hydroxypropylcellulose) (HPC)",118 % of control
same,T/C,"endpoint: mean survival time, dose: 8.0 mg/kg/injection, schedule: Q04DX003 (ip), vehicle: Klucel (hydroxypropylcellulose) (HPC)",155 % of control
same,T/C,"endpoint: mean survival time, dose: 18.0 mg/kg/injection, schedule: Q04DX003 (ip), vehicle: Klucel (hydroxypropylcellulose) (HPC)",177 % of control
O=C(Nc1ccc([N+](=O)[O-])cc1)Oc1c(Cl)cc(Cl)c(Cl)c1[N+](=O)[O-],T/C,"endpoint: mean survival time, dose: 25.0 mg/kg/injection, schedule: Q04DX002 (ip), vehicle: Klucel (hydroxypropylcellulose) (HPC)",112 % of control
same,T/C,"endpoint: mean survival time, dose: 50.0 mg/kg/injection, schedule: Q04DX002 (ip), vehicle: Klucel (hydroxypropylcellulose) (HPC)",97 % of control
same,T/C,"endpoint: mean survival time, dose: 100.0 mg/kg/injection, schedule: Q04DX002 (ip), vehicle: Klucel (hydroxypropylcellulose) (HPC)",94 % of control and 90 % of control
NS(=O)(=O)c1c[nH]c(=O)[nH]c1=O,T/C,[1],104 % of control
same,T/C,[2],102 % of control
same,T/C,[3],102 % of control
C[n+]1cccc2c3ccccc3c(-c3ccccc3)cc21,T/C,"endpoint: mean survival time, dose: 0.78 mg/kg/injection, schedule: Q01DX009 (ip), vehicle: water",86 % of control
same,T/C,"endpoint: mean survival time, dose: 1.56 mg/kg/injection, schedule: Q01DX009 (ip), vehicle: water",102 % of control
same,T/C,"endpoint: mean survival time, dose: 3.12 mg/kg/injection, schedule: Q01DX009 (ip), vehicle: water",87 % of control
same,T/C,"endpoint: mean survival time, dose: 6.25 mg/kg/injection, schedule: Q01DX009 (ip), vehicle: water",112 % of control and 92 % of control
same,T/C,"endpoint: mean survival time, dose: 12.5 mg/kg/injection, schedule: Q04DX003 (ip), vehicle: water",104 % of control
same,T/C,"endpoint: mean survival time, dose: 25.0 mg/kg/injection, schedule: Q04DX003 (ip), vehicle: water",104 % of control
Nc1n[nH]c(N)n1.[Co],T/C,"endpoint: mean survival time, dose: 50.0 mg/kg/injection, schedule: Q04DX003 (ip), vehicle: saline",103 % of control
same,T/C,"endpoint: mean survival time, dose: 100.0 mg/kg/injection, schedule: Q01DX009 (ip), vehicle: saline",100 % of control
same,T/C,[1],100 % of control
same,T/C,"endpoint: mean survival time, dose: 200.0 mg/kg/injection, schedule: Q01DX009 (ip), vehicle: saline",94 % of control
same,T/C,[2],108 % of control
same,T/C,"endpoint: mean survival time, dose: 400.0 mg/kg/injection, schedule: Q01DX009 (ip), vehicle: saline",107 % of control
same,T/C,[3],105 % of control
